Among the test systems are A498; COLO 205; EKVX; HCT-116; HOP-92; HT-29; IGROV-1; K562; LOX IMVI; M19-MEL; NCI-H522; OVCAR-4; RPMI-8226; SK-OV-3; SW-620; UACC-257; HCC 2998.
What all share (assay): DTP human tumour cell line panel, 48 h

Each structure is given as a SMILES string.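 Each compound was tested at five concentrations against cells in 96-well plates for 48 hours. At the GI50, growth is halved.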 Activity calls are given as the source filed them. Cut-off read from the data, not from the text of the source: active = GI50 up to about 1.1 µM and inactive = higher.

Consider `COC(=O)C[C@H]1CCC2(OCCO2)[C@]1(C)C(=O)OC`, for which the GI50 in the assay on A498, in the assay with COLO 205, with EKVX, in the assay with HCT-116, in the assay with HOP-92 and in the assay with HT-29 was > 100 µM (inactive) in each case. Further, the GI50 with IGROV-1, in the assay with K562, with LOX IMVI, in the assay on M19-MEL, in the assay with NCI-H522 and in the assay on OVCAR-4 was > 100 µM (inactive) throughout. Moreover, the GI50 in the assay on RPMI-8226, in the assay with SK-OV-3, with SW-620 and in the assay with UACC-257 was > 100 µM (inactive) each time.

Regarding `CN(C)CCC(=O)/C=C\c1ccccc1`, the GI50 (as a rule, the concentration at which growth is held to half of that of the control) was 20 µM (inactive) in the assay with A498; 15.8 µM (inactive) in the assay with COLO 205; 18.7 µM (inactive) in the assay on EKVX; 15.3 µM (inactive) in the assay on HCT-116; 16.6 µM (inactive) with HOP-92; 19.5 µM (inactive) in the assay on HT-29. Moreover, the GI50 in the assay with IGROV-1 is 24.5 µM (inactive); in the assay on K562 it was 13.2 µM (inactive); in the assay with LOX IMVI, 14.3 µM (inactive); in the assay on M19-MEL, 19.7 µM (inactive); with NCI-H522, 18.9 µM (inactive); in the assay on OVCAR-4 it was 19.1 µM (inactive). The values for the GI50 in the assay with RPMI-8226, with SW-620 and in the assay on UACC-257 were 14.6 µM (inactive), 18.5 µM (inactive) and 17.3 µM (inactive), respectively.

Regarding `COc1ccc([C@@H]2CC(=O)NCCCCNCCCN2)cc1`, the GI50 in the assay on A498 is > 100 µM (inactive); in the assay on COLO 205 it was > 100 µM (inactive); in the assay on EKVX, > 100 µM (inactive); in the assay on HCC 2998 it was 0.0131 µM (active); in the assay on HCT-116 it was > 100 µM (inactive); with HOP-92, > 100 µM (inactive). Moreover, the GI50 with HT-29, with IGROV-1, in the assay with K562, in the assay with M19-MEL, in the assay with NCI-H522 and with OVCAR-4 was > 100 µM (inactive) each time. Also, the GI50 in the assay on RPMI-8226, with SK-OV-3, in the assay on SW-620 and in the assay with UACC-257 was > 100 µM (inactive) each time.

Regarding `C[C@]12CC[C@H](OC(=O)Cc3ccc(N(CCCl)CCCl)cc3)CC1CC[C@@H]1C2CC[C@]2(C)NC(=O)CCC12` (some centres undefined), the GI50 in the assay with A498 is 18.9 µM (inactive); in the assay with COLO 205, 5.4 µM (inactive); in the assay on HCC 2998, 18.7 µM (inactive); in the assay on HCT-116, 5.11 µM (inactive); in the assay with HOP-92, 15.6 µM (inactive); with HT-29, 1.87 µM (inactive). Further, the GI50 with IGROV-1 is 14 µM (inactive); in the assay with K562 it was 4.06 µM (inactive); in the assay with LOX IMVI, 13.2 µM (inactive); with M19-MEL, 14.3 µM (inactive); in the assay with NCI-H522, 10.7 µM (inactive); in the assay on OVCAR-4, 12.2 µM (inactive). In addition, the GI50 in the assay with RPMI-8226 was 4.16 µM (inactive); in the assay with SK-OV-3 it was 17 µM (inactive); in the assay on SW-620, 9.33 µM (inactive); in the assay on UACC-257, 13.2 µM (inactive).

`CCCCCCCCCCCCCC(=O)OCC1OC(n2cc(F)c(=O)[nH]c2=O)C(N)C(OC(=O)CCCCCCCCCCCCC)C1O` (centres undefined): the GI50 with A498, in the assay with COLO 205, in the assay on EKVX, with HCC 2998, with HCT-116 and in the assay with HOP-92 was > 100 µM (inactive) each time. Further, the GI50 with HT-29, in the assay with K562, with LOX IMVI, in the assay with M19-MEL, with NCI-H522 and in the assay with OVCAR-4 was > 100 µM (inactive) each time. In addition, the GI50 with RPMI-8226, in the assay with SK-OV-3, with SW-620 and with UACC-257 was > 100 µM (inactive) in each case.

Turning to `O=C(Cc1ccccc1)NN1C(=O)C(Cl)C1c1cc(Br)ccc1O` (centres undefined), the GI50 with COLO 205 is 14.1 µM (inactive); in the assay on EKVX, 3.03 µM (inactive); in the assay with HCC 2998, 9.46 µM (inactive); with HCT-116, 3.83 µM (inactive); with HT-29, 7.64 µM (inactive); in the assay on IGROV-1, 7.71 µM (inactive). For the same compound, the GI50 with K562 is 3.35 µM (inactive); in the assay on LOX IMVI, 4.15 µM (inactive); with M19-MEL it was 4.62 µM (inactive); with NCI-H522, 2.72 µM (inactive); with OVCAR-4, 2.21 µM (inactive); in the assay on RPMI-8226 it was 3.72 µM (inactive). Further, the GI50 in the assay with SK-OV-3 is 4.07 µM (inactive); in the assay on SW-620 it was 4.11 µM (inactive); with UACC-257 it was 1.29 µM (inactive).

As for `Cc1nc2sccn2c1C(=O)N/N=C1\SCC(=O)N1C`, the GI50 with COLO 205, in the assay with EKVX, in the assay with HCC 2998, with HCT-116, in the assay on HOP-92 and in the assay with HT-29 was > 100 µM (inactive) each time. The GI50 in the assay on IGROV-1, in the assay with K562, in the assay on LOX IMVI, in the assay on M19-MEL, in the assay with NCI-H522 and with RPMI-8226 was > 100 µM (inactive) in each case. The GI50 in the assay on SK-OV-3, in the assay with SW-620 and with UACC-257 was > 100 µM (inactive) throughout.

As for `Cc1cc(Cl)cc2c1NC(=O)C2(O)CC(=O)c1ccc(F)cc1` (centres undefined), the GI50 in the assay with COLO 205 is 24.8 µM (inactive); in the assay with EKVX it was > 100 µM (inactive); in the assay on HCC 2998, 36.1 µM (inactive); in the assay on HCT-116, 56.4 µM (inactive); in the assay on HOP-92, > 100 µM (inactive); with HT-29, 48.1 µM (inactive). Moreover, the GI50 in the assay with IGROV-1 is 58.9 µM (inactive); with LOX IMVI it was 27.7 µM (inactive); in the assay on M19-MEL, 5.41 µM (inactive); with OVCAR-4 it was 41.9 µM (inactive); in the assay with RPMI-8226, 27.2 µM (inactive); with SK-OV-3, > 100 µM (inactive). Further, the GI50 with SW-620 is 94 µM (inactive); in the assay with UACC-257, 37.3 µM (inactive).

With `COC(=O)[C@@H](C)[C@H]1CC[C@@](C)(CCC2=C(C)CC3C=C(C)CCC3C2(C)C)OO1` (some centres undefined), the GI50 in the assay with A498 was 1.8 µM (inactive); with COLO 205, 1.66 µM (inactive); in the assay with EKVX, 1.64 µM (inactive); in the assay on HCC 2998, 1.35 µM (inactive); in the assay on HCT-116 it was 1.69 µM (inactive); in the assay with HT-29, 1.42 µM (inactive). For the same compound, the GI50 was 1.42 µM (inactive) in the assay on IGROV-1; 1.3 µM (inactive) in the assay on K562; 1.77 µM (inactive) in the assay on M19-MEL; 0.167 µM (active) in the assay on NCI-H522; 1.52 µM (inactive) in the assay with OVCAR-4; 1.65 µM (inactive) in the assay on RPMI-8226. Besides, the GI50 in the assay on SK-OV-3 is 2.4 µM (inactive); in the assay with SW-620 it was 0.277 µM (active); with UACC-257, 2.99 µM (inactive).

Take `CCOP(=O)(OCC)/C(C#N)=C\c1ccsc1`: the GI50 in the assay with COLO 205, in the assay on EKVX, in the assay with HCC 2998, in the assay on HCT-116, in the assay with HOP-92 and with HT-29 was > 100 µM (inactive) each time. Further, the GI50 with LOX IMVI, in the assay with M19-MEL, with NCI-H522, in the assay on OVCAR-4, in the assay on RPMI-8226 and in the assay on SK-OV-3 was > 100 µM (inactive) in each case. Besides, the GI50 in the assay on SW-620 and in the assay on UACC-257 was > 100 µM (inactive) in each case.

For `CC(=O)O[C@H]1C(=O)[C@@]2(C)C(C(OC(=O)c3ccccc3)C3[C@@H](O)C(OC(=O)[C@@H](O)[C@H](NC(=O)c4ccccc4)c4ccc(C(F)(F)F)cc4)C(C)=C1C3(C)C)[C@]1(OC(C)=O)CO[C@@H]1C[C@@H]2O` (some centres undefined), the GI50 in the assay on COLO 205 is 9.55 µM (inactive); with EKVX it was > 25 µM (inactive); with HCC 2998, 16.2 µM (inactive); in the assay with HCT-116, 9.1 µM (inactive); in the assay with HT-29, 12.6 µM (inactive); in the assay on IGROV-1, > 25 µM (inactive). Besides, the GI50 in the assay with K562 is 12.4 µM (inactive); in the assay with LOX IMVI, 16.1 µM (inactive); with M19-MEL, > 25 µM (inactive); with NCI-H522, 7.59 µM (inactive); in the assay with RPMI-8226 it was 10.3 µM (inactive); with SK-OV-3, > 25 µM (inactive). Moreover, the GI50 is 8 µM (inactive) in the assay with SW-620 and > 25 µM (inactive) in the assay on UACC-257.

`CCOC1=C2C(C)(CCC3[C@@]4(C)C=CC(=O)C(C)(C)C4CC(O)[C@@]23C)C(c2ccoc2)C1=O` (some centres undefined): the GI50 with A498 was 17.3 µM (inactive); in the assay with COLO 205 it was 13.1 µM (inactive); with EKVX, 18.5 µM (inactive); with HCC 2998 it was 16.3 µM (inactive); in the assay on HCT-116, 11.3 µM (inactive); in the assay on HOP-92, 17.9 µM (inactive). Besides, the GI50 is 10.9 µM (inactive) in the assay with HT-29; 12.4 µM (inactive) in the assay on IGROV-1; 7.24 µM (inactive) in the assay on K562; 14.9 µM (inactive) in the assay on LOX IMVI; 18.9 µM (inactive) in the assay with M19-MEL; 17.2 µM (inactive) with OVCAR-4. Further, the GI50 in the assay with RPMI-8226 was 15.6 µM (inactive); with SK-OV-3 it was 26.4 µM (inactive); in the assay with SW-620, 17.2 µM (inactive); in the assay on UACC-257, 23.7 µM (inactive).

Take `COc1ccc(C(=O)C#Cc2cnc(O)nc2O)cc1`: the GI50 in the assay with A498 was 23.7 µM (inactive); with COLO 205 it was 11.9 µM (inactive); in the assay on EKVX it was 19.4 µM (inactive); in the assay with HCC 2998 it was 18.7 µM (inactive); in the assay on HCT-116, 6.03 µM (inactive); with HOP-92, 21.4 µM (inactive). Also, the GI50 with HT-29 was 11.5 µM (inactive); with IGROV-1, > 42.2 µM (inactive); in the assay on K562, 3.61 µM (inactive); in the assay on LOX IMVI, 3.21 µM (inactive); in the assay on M19-MEL it was 8.93 µM (inactive); with NCI-H522, 3.12 µM (inactive). Moreover, the GI50 in the assay with OVCAR-4 was 16.8 µM (inactive); in the assay with RPMI-8226 it was 13.3 µM (inactive); with SK-OV-3 it was 52.8 µM (inactive); in the assay with SW-620, 5.69 µM (inactive); in the assay on UACC-257 it was 11.9 µM (inactive).

The values above are taken from ChEMBL document CHEMBL1201862, “PubChem BioAssay data set” (2004).
